Laboratory results taken from ChEMBL document CHEMBL6083190, “Synthesis and mechanistic study of Aβ42 C-terminus domain derived tetrapeptides that inhibit Alzheimer's Aβ-aggregation-induced neurotoxicity” (Bioorg Med Chem Lett, 2024).
The source made the active and inactive calls. The calls are words filed in the database; no cut-off is given here. Non-standard residues stand in square brackets, D forms with d. Residues, ends and D or L forms follow the SMILES beside them. ξ: configuration not given here. Tle = CC(C)(C)[C@H](N)C(=O)O; ξOic = O=C(O)C1CC2CCCCC2N1; Aib = CC(C)(N)C(=O)O

Biological target: Amyloid-beta precursor protein (Homo sapiens) (UniProt P05067)
Sequence (P05067 whole entry): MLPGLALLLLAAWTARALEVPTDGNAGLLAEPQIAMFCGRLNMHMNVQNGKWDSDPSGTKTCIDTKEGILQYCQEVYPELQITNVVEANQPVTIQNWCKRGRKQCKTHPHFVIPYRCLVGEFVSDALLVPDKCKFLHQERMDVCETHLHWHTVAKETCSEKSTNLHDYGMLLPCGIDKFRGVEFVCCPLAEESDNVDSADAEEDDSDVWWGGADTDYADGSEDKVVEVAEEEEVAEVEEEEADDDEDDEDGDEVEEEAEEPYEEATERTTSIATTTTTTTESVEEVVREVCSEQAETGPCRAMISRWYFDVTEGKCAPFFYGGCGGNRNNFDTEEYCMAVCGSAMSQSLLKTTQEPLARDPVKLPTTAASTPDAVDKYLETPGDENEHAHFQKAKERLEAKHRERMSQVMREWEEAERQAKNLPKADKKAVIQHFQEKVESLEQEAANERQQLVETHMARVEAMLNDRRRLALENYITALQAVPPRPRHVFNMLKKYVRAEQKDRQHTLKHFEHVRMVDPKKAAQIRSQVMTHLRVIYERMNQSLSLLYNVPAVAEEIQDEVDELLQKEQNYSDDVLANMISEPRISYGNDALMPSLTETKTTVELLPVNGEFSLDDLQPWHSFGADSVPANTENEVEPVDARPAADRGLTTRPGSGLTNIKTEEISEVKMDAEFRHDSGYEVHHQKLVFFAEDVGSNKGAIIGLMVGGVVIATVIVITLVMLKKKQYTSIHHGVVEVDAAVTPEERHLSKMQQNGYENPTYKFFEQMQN
Experiment: Inhibition of amyloid beta (1 to 42) (unknown origin) self-aggregation assessed as absence of fibrillar aggregates at 1:5 amyloid-beta:compound concentration ratio measured immediately by scanning transmission electron microscopic analysis
Details: not given

With `CC[C@H](C)[C@H](NC(=O)[C@@H](NC(=O)C1CC2CCCCC2N1)C(C)C)C(=O)N[C@@H](C)C(N)=O` (stereo not given in full) the inhibition was “Not active; Small Aggregates Observed”.

Biological target: Amyloid-beta precursor protein (Homo sapiens) (UniProt P05067)
Experiment: Inhibition of amyloid beta (1 to 42) (unknown origin) self-aggregation assessed as absence of fibrillar aggregates at 1:5 amyloid-beta:compound concentration ratio incubated for 72 hrs by high-resolution transmission electron microscopic analysis
Details: not given

In the case of `CC[C@H](C)[C@H](NC(=O)[C@@H](NC(=O)C1CC2CCCCC2N1)C(C)C)C(=O)N[C@@H](C)C(N)=O` (stereo not given in full), the inhibition is reported as “Not active; Formation Of Small, Non-Fibrillar Like Amorphous Aggregates Observed”.

System: PC-12
Experiment: Protection against amyloid beta-induced neurotoxicity in rat PC-12 cells assessed as cell viability at 2 uM by MTT assay (reference value: 63.6 %)
Format: functional
Details: read-out: Activity

First: CC[C@H](C)[C@H](NC(=O)[C@H](C)N)C(=O)N[C@H](C(=O)NC(C)(C)C(N)=O)C(C)C (H-AIV[Aib]-NH2)
Second: CC[C@H](C)[C@H](NC(=O)[C@@H](NC(=O)[C@@H](N)C(C)(C)C)C(C)C)C(=O)N[C@@H](C)C(N)=O (H-[Tle]VIA-NH2)
The viability at 2 µM of the first is lower: 75.3% for the first, 79.9% for the second.

Going from `CC[C@@H](C)[C@@H](NC(=O)[C@H](NC(=O)[C@H](N)C(C)C)C(C)C)C(=O)N[C@H](C)C(N)=O` to `CC[C@H](C)[C@H](NC(=O)[C@H](C)N)C(=O)N[C@H](C(=O)N[C@H](Cc1ccccc1)C(N)=O)C(C)C`, the viability at 2 µM falls from 73.3% to 55.2%.

First: CC[C@H](C)[C@H](NC(=O)C1Cc2ccccc2CN1C(=O)[C@@H](N)C(C)C)C(=O)N[C@@H](C)C(N)=O (stereo not given in full)
Second: CC[C@H](C)[C@H](NC(=O)C1CC2CCCCC2N1C(=O)[C@@H](N)C(C)C)C(=O)N[C@@H](C)C(N)=O (stereo not given in full) (H-V[ξOic]IA-NH2)
The viability at 2 µM of the first is higher: 95.4% for the first, 64.1% for the second.

In the case of `CC[C@H](C)[C@H](NC(=O)[C@@H](NC(=O)C1CC2CCCCC2N1)C(C)C)C(=O)N[C@@H](C)C(N)=O` (stereo not given in full), the viability at 2 µM is reported as 65.3%.

System: PC-12
Experiment: Protection against amyloid beta-induced neurotoxicity in rat PC-12 cells assessed as cell viability at 10 uM by MTT assay (reference value: 63.6 %)
Format: functional
Details: read-out: Activity

Compared with `CC[C@H](C)[C@H](NC(=O)[C@H](C)N)C(=O)N[C@H](C(=O)NC(C)(C)C(N)=O)C(C)C` (H-AIV[Aib]-NH2), `CC[C@H](C)[C@H](NC(=O)[C@@H](NC(=O)[C@@H](N)C(C)(C)C)C(C)C)C(=O)N[C@@H](C)C(N)=O` (H-[Tle]VIA-NH2) is lower in viability at 10 µM: 70.9% for the first, 64.6% for the second.

Compared with `CC[C@@H](C)[C@@H](NC(=O)[C@H](NC(=O)[C@H](N)C(C)C)C(C)C)C(=O)N[C@H](C)C(N)=O`, `CC[C@H](C)[C@H](NC(=O)[C@H](C)N)C(=O)N[C@H](C(=O)N[C@H](Cc1ccccc1)C(N)=O)C(C)C` is higher in viability at 10 µM: 64.1% for the first, 76.4% for the second.

Going from `CC[C@H](C)[C@H](NC(=O)C1Cc2ccccc2CN1C(=O)[C@@H](N)C(C)C)C(=O)N[C@@H](C)C(N)=O` (stereo not given in full) to `CC[C@H](C)[C@H](NC(=O)C1CC2CCCCC2N1C(=O)[C@@H](N)C(C)C)C(=O)N[C@@H](C)C(N)=O` (stereo not given in full) (H-V[ξOic]IA-NH2), the viability at 10 µM falls from 76.1% to 62.1%.

For `CC[C@H](C)[C@H](NC(=O)[C@@H](NC(=O)C1CC2CCCCC2N1)C(C)C)C(=O)N[C@@H](C)C(N)=O` (stereo not given in full), the viability at 10 µM was 57.7%.

Biological target: Amyloid-beta precursor protein (Homo sapiens) (UniProt P05067)
Experiment: Inhibition of amyloid beta (1 to 42) (unknown origin) self aggregation by ThT fluorescence assay relative to control
Details: concentration not given here

For `CC[C@H](C)[C@H](NC(=O)C1Cc2ccccc2CN1C(=O)[C@@H](N)C(C)C)C(=O)N[C@@H](C)C(N)=O` (stereo not given in full), the inhibition was greater than 50%.

Biological target: Amyloid-beta precursor protein (Homo sapiens) (UniProt P05067)
Experiment: Inhibition of amyloid beta (1 to 42) (unknown origin) self-aggregation assessed as absence of fibrillar aggregates at 1:5 amyloid-beta:compound concentration ratio measured immediately by high-resolution transmission electron microscopic analysis
Details: not given

In the case of `CC[C@H](C)[C@H](NC(=O)[C@@H](NC(=O)C1CC2CCCCC2N1)C(C)C)C(=O)N[C@@H](C)C(N)=O` (stereo not given in full), the inhibition is reported as “Not active; Small Aggregates Observed”.

System: not listed separately
Experiment: Inhibition of amyloid beta-induced neurotoxicity in rat PC-12 cells at 4 uM by MTT assay relative to control
Format: functional
Details: not given

Compared with `CC[C@H](C)[C@H](NC(=O)[C@H](C)N)C(=O)N[C@H](C(=O)NC(C)(C)C(N)=O)C(C)C` (H-AIV[Aib]-NH2), `CC[C@H](C)[C@H](NC(=O)[C@@H](NC(=O)[C@@H](N)C(C)(C)C)C(C)C)C(=O)N[C@@H](C)C(N)=O` (H-[Tle]VIA-NH2) is lower in inhibition at 4 µM: 9% for the first, 0% for the second.

Going from `CC[C@@H](C)[C@@H](NC(=O)[C@H](NC(=O)[C@H](N)C(C)C)C(C)C)C(=O)N[C@H](C)C(N)=O` to `CC[C@H](C)[C@H](NC(=O)[C@H](C)N)C(=O)N[C@H](C(=O)N[C@H](Cc1ccccc1)C(N)=O)C(C)C`, the inhibition at 4 µM rises from 6% to 15%.

Going from `CC[C@H](C)[C@H](NC(=O)C1Cc2ccccc2CN1C(=O)[C@@H](N)C(C)C)C(=O)N[C@@H](C)C(N)=O` (stereo not given in full) to `CC[C@H](C)[C@H](NC(=O)C1CC2CCCCC2N1C(=O)[C@@H](N)C(C)C)C(=O)N[C@@H](C)C(N)=O` (stereo not given in full) (H-V[ξOic]IA-NH2), the inhibition at 4 µM falls from 46% to 41%.

`CC[C@H](C)[C@H](NC(=O)[C@@H](NC(=O)C1CC2CCCCC2N1)C(C)C)C(=O)N[C@@H](C)C(N)=O` (stereo not given in full) showed an inhibition at 4 µM of 0%.

System: not listed separately
Experiment: Inhibition of amyloid beta-induced neurotoxicity in rat PC-12 cells at 10 uM by MTT assay relative to control
Format: functional
Details: not given

Going from `CC[C@H](C)[C@H](NC(=O)[C@H](C)N)C(=O)N[C@H](C(=O)NC(C)(C)C(N)=O)C(C)C` (H-AIV[Aib]-NH2) to `CC[C@H](C)[C@H](NC(=O)[C@@H](NC(=O)[C@@H](N)C(C)(C)C)C(C)C)C(=O)N[C@@H](C)C(N)=O` (H-[Tle]VIA-NH2), the inhibition at 10 µM falls from 20% to 3%.

Going from `CC[C@@H](C)[C@@H](NC(=O)[C@H](NC(=O)[C@H](N)C(C)C)C(C)C)C(=O)N[C@H](C)C(N)=O` to `CC[C@H](C)[C@H](NC(=O)[C@H](C)N)C(=O)N[C@H](C(=O)N[C@H](Cc1ccccc1)C(N)=O)C(C)C`, the inhibition at 10 µM rises from 1% to 35%.

First: CC[C@H](C)[C@H](NC(=O)C1Cc2ccccc2CN1C(=O)[C@@H](N)C(C)C)C(=O)N[C@@H](C)C(N)=O (stereo not given in full)
Second: CC[C@H](C)[C@H](NC(=O)C1CC2CCCCC2N1C(=O)[C@@H](N)C(C)C)C(=O)N[C@@H](C)C(N)=O (stereo not given in full) (H-V[ξOic]IA-NH2)
The inhibition at 10 µM of the first is higher: 34% for the first, 0% for the second.

With `CC[C@H](C)[C@H](NC(=O)[C@@H](NC(=O)C1CC2CCCCC2N1)C(C)C)C(=O)N[C@@H](C)C(N)=O` (stereo not given in full) the inhibition at 10 µM was 0%.

Biological target: Amyloid-beta precursor protein (Homo sapiens) (UniProt P05067)
Experiment: Inhibition of amyloid beta (1 to 42) (unknown origin) self aggregation at 2 to 10 uM by ThT fluorescence assay
Details: dose 2-10 µM

With `CC[C@H](C)[C@H](NC(=O)[C@H](C)N)C(=O)N[C@H](C(=O)NC(C)(C)C(N)=O)C(C)C` (H-AIV[Aib]-NH2) the inhibition was “Active”.
With `CC[C@H](C)[C@H](NC(=O)[C@H](C)N)C(=O)N[C@H](C(=O)N[C@H](Cc1ccccc1)C(N)=O)C(C)C` the inhibition was “Active”.
In the case of `CC[C@H](C)[C@H](NC(=O)C1Cc2ccccc2CN1C(=O)[C@@H](N)C(C)C)C(=O)N[C@@H](C)C(N)=O` (stereo not given in full), the inhibition is reported as “Active”.

System: not listed separately
Experiment: Inhibition of amyloid beta-induced neurotoxicity in rat PC-12 cells at 2 uM by MTT assay relative to control
Format: functional
Details: not given

Compared with `CC[C@H](C)[C@H](NC(=O)[C@H](C)N)C(=O)N[C@H](C(=O)NC(C)(C)C(N)=O)C(C)C` (H-AIV[Aib]-NH2), `CC[C@H](C)[C@H](NC(=O)[C@@H](NC(=O)[C@@H](N)C(C)(C)C)C(C)C)C(=O)N[C@@H](C)C(N)=O` (H-[Tle]VIA-NH2) is higher in inhibition at 2 µM: 32% for the first, 45% for the second.

Compared with `CC[C@@H](C)[C@@H](NC(=O)[C@H](NC(=O)[C@H](N)C(C)C)C(C)C)C(=O)N[C@H](C)C(N)=O`, `CC[C@H](C)[C@H](NC(=O)[C@H](C)N)C(=O)N[C@H](C(=O)N[C@H](Cc1ccccc1)C(N)=O)C(C)C` is lower in inhibition at 2 µM: 27% for the first, 0% for the second.

First: CC[C@H](C)[C@H](NC(=O)C1Cc2ccccc2CN1C(=O)[C@@H](N)C(C)C)C(=O)N[C@@H](C)C(N)=O (stereo not given in full)
Second: CC[C@H](C)[C@H](NC(=O)C1CC2CCCCC2N1C(=O)[C@@H](N)C(C)C)C(=O)N[C@@H](C)C(N)=O (stereo not given in full) (H-V[ξOic]IA-NH2)
The inhibition at 2 µM of the first is higher: 87% for the first, 1% for the second.

`CC[C@H](C)[C@H](NC(=O)[C@@H](NC(=O)C1CC2CCCCC2N1)C(C)C)C(=O)N[C@@H](C)C(N)=O` (stereo not given in full) gave an inhibition at 2 µM of 5%.

Biological target: Amyloid-beta precursor protein (Homo sapiens) (UniProt P05067)
Experiment: Inhibition of amyloid beta (1 to 42) (unknown origin) self-aggregation assessed as absence of fibrillar aggregates at 1:5 amyloid-beta:compound concentration ratio incubated for 72 hrs by scanning transmission electron microscopic analysis
Details: not given

In the case of `CC[C@H](C)[C@H](NC(=O)[C@@H](NC(=O)C1CC2CCCCC2N1)C(C)C)C(=O)N[C@@H](C)C(N)=O` (stereo not given in full), the inhibition is reported as “Not active; Formation Of Small, Non-Fibrillar Like Amorphous Aggregates Observed”.

System: PC-12
Experiment: Protection against amyloid beta-induced neurotoxicity in rat PC-12 cells assessed as cell viability at 4 uM by MTT assay (reference value: 63.6 %)
Format: functional
Details: read-out: Activity

Compared with `CC[C@H](C)[C@H](NC(=O)[C@H](C)N)C(=O)N[C@H](C(=O)NC(C)(C)C(N)=O)C(C)C` (H-AIV[Aib]-NH2), `CC[C@H](C)[C@H](NC(=O)[C@@H](NC(=O)[C@@H](N)C(C)(C)C)C(C)C)C(=O)N[C@@H](C)C(N)=O` (H-[Tle]VIA-NH2) is lower in viability at 4 µM: 67% for the first, 61.1% for the second.

First: CC[C@@H](C)[C@@H](NC(=O)[C@H](NC(=O)[C@H](N)C(C)C)C(C)C)C(=O)N[C@H](C)C(N)=O
Second: CC[C@H](C)[C@H](NC(=O)[C@H](C)N)C(=O)N[C@H](C(=O)N[C@H](Cc1ccccc1)C(N)=O)C(C)C
The viability at 4 µM of the first is lower: 65.6% for the first, 69.1% for the second.

Compared with `CC[C@H](C)[C@H](NC(=O)C1Cc2ccccc2CN1C(=O)[C@@H](N)C(C)C)C(=O)N[C@@H](C)C(N)=O` (stereo not given in full), `CC[C@H](C)[C@H](NC(=O)C1CC2CCCCC2N1C(=O)[C@@H](N)C(C)C)C(=O)N[C@@H](C)C(N)=O` (stereo not given in full) (H-V[ξOic]IA-NH2) is lower in viability at 4 µM: 80.3% for the first, 78.6% for the second.

Molecule `CC[C@H](C)[C@H](NC(=O)[C@@H](NC(=O)C1CC2CCCCC2N1)C(C)C)C(=O)N[C@@H](C)C(N)=O` (stereo not given in full) has a viability at 4 µM of 63.3%.
